Data taken from US5747235A, “Silver halide light sensitive emulsion layer having enhanced photographic sensitivity” (Eastman Kodak Company, priority 1996, dated 1998).
Counter-ions that a name gives are not always drawn.

Legend:
[1] = Example 7: photographic speed and fog with/without HB3, 365 nm exposure, emulsion T-2
Method: (§1) For photographic evaluation, each of the coating strips was exposed for 0.1 sec to a 365 nm emission line of a Hg lamp filtered through a Kodak Wratten filter number 18A and a step wedge ranging in density from 0 to 4 density units in 0.2 density steps. The exposed film strips were developed for 6 min in Kodak Rapid X-ray Developer (KRX). S365, relative sensitivity at 365 nm, was evaluated at a density of 0.2 units above fog.
An AgBrI tabular silver halide emulsion (Emulsion T-2) was prepared containing 4.05% total I distributed such that the central portion of the emulsion grains contained 1.5% I and the perimeter area contained substantially higher I, as described by Chang et. al., U.S. Pat. No. 5,314,793. […] This emulsion was precipitated using deionized gelatin. The emulsion was sulfur sensitized by adding 8.5×10^-6 mole 1,3-dicarboxymethyl-1,3-dimethyl-2-thiourea /mole Ag at 40° C.; the temperature was then raised to 60° C. at a rate of 5° C./3 min and the emulsions held for 20 min before cooling to 40° C. The chemically sensitized emulsion was then used to prepare coatings containing the fragmentable two-electron donor compounds. […] Where present, the blue sensitizing dye D-I or the red sensitizing dye D-II were added from methanol solution to the emulsion at 40° C. after the chemical sensitization and disulfocatechol addition. The fragmentable two-electron donor compounds were added to the emulsion at 40° C. and the coatings were prepared and tested as described in Example 1, except that the additional gelatin used to prepare the coatings described in Table III was deionized gelatin.
Where present the blue sensitizing dye D-I or the red sensitizing dye D-II were added from methanol solution to the emulsion at 40° C. after the chemical sensitization and disulfocatechol addition. The fragmentable two-electron donating compounds were then added to the emulsion and coatings prepared as described in Example 1, except that the additional gelatin used to prepare the coatings described in Table VII was deionized gelatin. The coatings were tested for their response to a 365 nm exposure as described in Example 1.

[2] = Example 2: photographic speed and fog, 365 nm exposure, acids vs corresponding esters, emulsion T-1; design: Fog: unit not given here; details: for Fog / S365: undyed; for S365: control=100
Method: This chemically sensitized emulsion was then used to prepare the experimental coating variations indicated in Table I. All of the experimental coating variations in Table I contained the hydroxybenzene 2,4-disulfocatechol (HB3) at a concentration of 13 mmole/mole Ag, added to the melt before the addition of any further addenda. The fragmentable electron donor compounds as indicated in Table I were added from an aqueous potassium bromide solution, or from a methanol solution, before additional water, gelatin, and surfactant were added to the emulsion melts.
as §1
The coatings described in Table II all contain the hydroxybenzene, 2,4-disulfocatechol (HB3) at a concentration of 13 mmole/mole Ag, added to the melt before any further addenda.

[3] = Example 14: blue light sensitivity and fog after post-exposure bath, emulsion T-1; details: bathed after exposure
Method: Samples of the coating were exposed to a xenon flash of 10^-3 sec duration filtered through a 2.0 neutral density filter, Kodak Wratten filters 35 and 38A, and a step wedge ranging in density from 0 to 3 density units in 0.15 density steps. These conditions allowed only blue light to expose the coatings. After exposure, one sample of the coating was subjected to each of the following treatments:
B. Post-exposure bath for 15 min in a solution of 5.4×10^-4 M NaBr and 3.0'10^-6 M S-3 at pH=6.0. (Bath 1)
Post-exposure bath for 15 min in a solution of 5.4×10^-4 M NaBr and 1.5×10^-5 M S-3 at pH=6.0. (Bath 2)
The coatings subjected to the post-exposure baths were then rinsed to remove excess solution and all coatings were developed together for 6 min in Kodak Rapid X-ray Developer (KRX). Relative sensitivity to blue light, Sblue, was evaluated at a density of 0.15 units above fog.

[4] = Example 8: photographic speed and fog, 365 nm exposure, cubic emulsion C-1; design: Fog: unit not given here; details: for sensitivity increase: both undyed cubic emulsions (C-1 and C-2)
Method: as §1
Two cubic emulsions with uniform halide composition were precipitated using deionized gelatin. Emulsion C-1 was a AgErI emulsion with a 3% I content and a cubic edge length of 0.47 μm and emulsion C-2 was an AgBr emulsion with a cubic edge length of 0.52 μm. The emulsions were sulfur sensitized by adding 1,3-dicarboxymethyl-1,3-dimethyl-2-thiourea at 40° C.; the temperature was then raised to 60° C. at a rate of 5° C./3 min and the emulsions held for 20 min before cooling to 40° C. The amounts of the sulfur sensitizing compound used were 1.0×10^-5 mole/mole Ag for emulsion C-1, and 6.0×10^-6mole/mole Ag for emulsion C-2. These experimental coating variations contained the hydroxybenzene, 2,4-disulfocatechcol (HB3) at a concentration of 13 mmole/mole Ag, added to the melt before the addition of any further compounds. Some of the variations were then dyed with the sensitizing dye D-II, added from methanol solution. The fragmentable electron donor compounds were then added to the emulsion melts at 40° C. and coatings were prepared and tested as described in Example 1 except that the additional gelatin used to prepare the coatings described in Table VIII was deionized gelatin. Also, the dyed coatings were tested for their response to a spectral exposure as described in Example 3.

[5] = Example 13: photographic speed and fog, 365 nm exposure, cubic emulsion C-3; details: for Fog / S365: 0.02 x10^-3 mol/mol Ag
Method: as §1
A chloride containing cubic emulsion with uniform halide distribution was precipitated using deionized gelatin. Emulsion C-3 was an AgClI emulsion with a 1.5% I content and a cubic edge length of 0.36 μm. The emulsion was chemically sensitized by adding 15 mg of Au2 S/mole Ag using a gelatin dispersion. The chemical sensitizer was added to the emulsion at 40° C., the temperature was then raised to 60° C. and the emulsion held for 20 min before cooling back to 40° C. These experimental coating variations contained the hydroxybenzene, 2,4-disulfocatechcol (HB3) at a concentration of 13 mmole/mole Ag, added to the melt before the addition of any further compounds. Some of the variations were then dyed with the sensitizing dye D-I, added from methanol solution. The fragmentable electron donor compound S-9 was then added to the emulsion melts at 40° C. and coatings were prepared and tested as described in Example 1 except that the additional gelatin used to prepare the coatings described in Table XIII was deionized gelatin.

[6] = 0.007 x10^-3 mole/mole Ag, HB3 0, dye II 0.86 x10^-3
[7] = 0.007 x10^-3 mole/mole Ag, HB3 13 x10^-3, dye II 0.86 x10^-3
[8] = 0.007 x10^-3 mole/mole Ag, HB3 13 x10^-3, dye II 0.86 x10^-3, dyed control 68
[9] = 0.07 x10^-3 mole/mole Ag, HB3 0, dye I 0.91 x10^-3
[10] = 0.07 x10^-3 mole/mole Ag, HB3 0, no dye
[11] = 0.07 x10^-3 mole/mole Ag, HB3 0, no dye, control=100
[12] = 0.07 x10^-3 mole/mole Ag, HB3 13 x10^-3, dye I 0.91 x10^-3
[13] = 0.07 x10^-3 mole/mole Ag, HB3 13 x10^-3, dye I 0.91 x10^-3, dyed control 105
[14] = 0.07 x10^-3 mole/mole Ag, HB3 13 x10^-3, no dye
[15] = 0.07 x10^-3 mole/mole Ag, HB3 13 x10^-3, no dye, control=100
[16] = 0.16 x10^-3 mol/mol Ag, no dye, control=100

Compound `CCSCCN(c1ccc(C)cc1)C(CC(=O)O)C(=O)O` (stereo not shown) [Compound S-8] has a Fog [1, 6] of 0.21, an S365 [1, 6] of 110 and a Fog [1, 7] of 0.15. The S365 [1, 8] was 112, the Fog [1, 9] was 0.12 and the S365 [1, 9] was 155. For the same compound, the Fog [1, 10] was 0.16, the S365 [1, 11] was 159 and the Fog [1, 12] was 0.12. It also gave an S365 [1, 13] of 120, a Fog [1, 14] of 0.13 and an S365 [1, 15] of 162.

Compound `CCSCCN(c1ccc(C)cc1)[C@@H](C)C(=O)[O-].[Na+]` [Compound S-3, N-(4-Methylphenyl)-N-(2-ethylthio-ethyl)alanine sodium salt] has a Fog ([2]; 0.00220 x10^-3 mole/mole Ag) of 0.07, an S365 ([2]; 0.00220 x10^-3 mole/mole Ag) of 110 and a Fog ([2]; 0.00700 x10^-3 mole/mole Ag) of 0.06. The S365 ([2]; 0.00700 x10^-3 mole/mole Ag) was 120, the Fog ([2]; 0.02200 x10^-3 mole/mole Ag) was 0.11 and the S365 ([2]; 0.02200 x10^-3 mole/mole Ag) was 141. For the same compound, the Fog ([2]; 0.07000 x10^-3 mole/mole Ag) was 0.57, the Fog ([2]; 0.22000 x10^-3 mole/mole Ag) was 1.24 and the “speed and fog change” value ([2]; undyed T-1 emulsion) was “both speed and fog increases”. For the same compound, the “sensitivity gain relative to unbathed coating” value [3] was ~2 X.

With `CCSCCN(c1ccccc1)C(C)C(=O)O` (stereo not shown) [Compound S-9, N-(Phenyl)-N-(2-thioethyl-ethyl)alanine sodium salt] the Fog ([1]; 0.0022 x10^-3 mole/mole Ag, HB3 13 x10^-3, dye II 0.86 x10^-3) was 0.24, the S365 ([1]; 0.0022 x10^-3 mole/mole Ag, HB3 13 x10^-3, dye II 0.86 x10^-3, dyed control 68) was 115 and the Fog [1, 6] was 0.77. For the same compound, the Fog [1, 7] was 0.44, the S365 [1, 8] was 107 and the Fog [1, 9] was 0.19. It also gave an S365 [1, 9] of 159, a Fog [1, 10] of 0.21 and an S365 [1, 11] of 170. It also gave a Fog [1, 12] of 0.13, an S365 [1, 13] of 162 and a Fog [1, 14] of 0.13. The S365 [1, 15] was 166, the Fog ([4]; 0.005 x10^-3 mol/mol Ag, dye II 0.44 x10^-3) was 0.18 and the S365 ([4]; 0.005 x10^-3 mol/mol Ag, dye II 0.44 x10^-3, dyed control 105) was 162. It also gave a Fog ([4]; 0.016 x10^-3 mol/mol Ag, dye II 0.44 x10^-3) of 0.21, an S365 ([4]; 0.016 x10^-3 mol/mol Ag, dye II 0.44 x10^-3, dyed control 105) of 191 and a Fog ([4]; 0.05 x10^-3 mol/mol Ag, no dye) of 0.07. For the same compound, the S365 ([4]; 0.05 x10^-3 mol/mol Ag, no dye, control=100) was 229, the Fog ([4]; 0.16 x10^-3 mol/mol Ag, no dye) was 0.07 and the S365 [4, 16] was 234. For the same compound, the “sensitivity increase” value [4] was “approximately a factor of two”, the Fog ([5]; dye I 0.61 x10^-3) was 0.14 and the S365 ([5]; dye I 0.61 x10^-3, dyed control 74) was 129. The Fog ([5]; no dye) was 0.15, the S365 ([5]; no dye, control=100) was 118 and the speed increase ([5]; undyed AgClI cubic emulsion) was 1.2 X.

`CCSCCN(c1ccc(C(=O)O)cc1)C(C)C(=O)O` (stereo not shown) [Compound S-11] gave a Fog ([4]; 0.05 x10^-3 mol/mol Ag, dye II 0.44 x10^-3) of 0.14, an S365 ([4]; 0.05 x10^-3 mol/mol Ag, dye II 0.44 x10^-3, dyed control 105) of 162 and a Fog ([4]; 0.16 x10^-3 mol/mol Ag, dye II 0.44 x10^-3) of 0.16. For the same compound, the S365 ([4]; 0.16 x10^-3 mol/mol Ag, dye II 0.44 x10^-3, dyed control 105) was 186, the Fog ([4]; 0.16 x10^-3 mol/mol Ag, no dye) was 0.07 and the S365 [4, 16] was 219. The Fog ([4]; 0.50 x10^-3 mol/mol Ag, no dye) was 0.07, the S365 ([4]; 0.50 x10^-3 mol/mol Ag, no dye, control=100) was 234 and the “sensitivity increase” value [4] was “approximately a factor of two”.
